Results from PMC8379219 (Nature Communications, 2021).
Values joined by “and” are separate entries in the source; they are usually repeats but may differ in a detail not shown here. Equal entries are not always repeated. “Also recorded” adds a separate entry of the source. Where two headings read alike, the source gives them in different places.

How the values were obtained:
[1] = target: T1, SERT WT (Homo sapiens, UniProt P31645); test: [3H]IMI dissociation rate assay (allosteric potency), COS-7 membranes;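 for all read-outs here: radioligand pre-bound 30 min at room temperature to equilibrium, then dissociation followed over 5–70 min, ended by filtration through GF/B filters, at least three independent experiments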; format: binding; parameters: expressed in transfected cells; host or cells: COS-7; conditions: for [3H]IMI dissociation (Fig. 2B): 41 nM; for VLZ Allosteric Potency SERT WT, [3H]IMI dissociation (Fig. 2C): ctrl = 1, replicates
T1 sequence (P31645 whole entry, the tested form may be a part): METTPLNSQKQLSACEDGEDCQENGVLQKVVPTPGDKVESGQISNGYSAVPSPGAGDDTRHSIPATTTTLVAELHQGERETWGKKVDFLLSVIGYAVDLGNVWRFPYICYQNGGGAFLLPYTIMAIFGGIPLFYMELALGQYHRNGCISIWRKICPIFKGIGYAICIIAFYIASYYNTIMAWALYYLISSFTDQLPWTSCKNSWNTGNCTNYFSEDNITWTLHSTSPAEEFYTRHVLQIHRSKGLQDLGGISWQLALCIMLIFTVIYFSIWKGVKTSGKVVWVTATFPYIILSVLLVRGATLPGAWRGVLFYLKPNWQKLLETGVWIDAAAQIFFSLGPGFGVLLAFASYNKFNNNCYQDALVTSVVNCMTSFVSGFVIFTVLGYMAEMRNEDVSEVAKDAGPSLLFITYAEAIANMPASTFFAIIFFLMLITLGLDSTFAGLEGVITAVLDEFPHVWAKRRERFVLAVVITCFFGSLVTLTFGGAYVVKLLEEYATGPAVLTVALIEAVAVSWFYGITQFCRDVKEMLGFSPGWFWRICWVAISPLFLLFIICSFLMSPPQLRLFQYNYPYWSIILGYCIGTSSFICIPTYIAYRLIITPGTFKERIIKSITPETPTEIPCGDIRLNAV

[2] = target: T2, SERT (Homo sapiens, UniProt P31645); test: [3H]S-CIT dissociation from SERT by VLZ in absence or presence of 10 µM Fab fragment; format: binding
T2 construct: expressed in transfected cells; host or cells: membranes of COS-7 cells, transient transfection
T2 sequence (P31645 whole entry, the tested form may be a part): as above

[3] = target: T2, SERT; test: [3H]IMI dissociation from SERT by VLZ in absence or presence of 10 µM Fab fragment; format: binding; conditions: for Fab fragment VLZ allostery w [3H]IMI Dissoc (Suppl. Fig 3A): ctrl = 1
[4] = target: T1, SERT WT
[5] = target: SERT S438T (Homo sapiens, UniProt P31645, S438T)
Chain of SERT S438T (P31645 whole entry S438T): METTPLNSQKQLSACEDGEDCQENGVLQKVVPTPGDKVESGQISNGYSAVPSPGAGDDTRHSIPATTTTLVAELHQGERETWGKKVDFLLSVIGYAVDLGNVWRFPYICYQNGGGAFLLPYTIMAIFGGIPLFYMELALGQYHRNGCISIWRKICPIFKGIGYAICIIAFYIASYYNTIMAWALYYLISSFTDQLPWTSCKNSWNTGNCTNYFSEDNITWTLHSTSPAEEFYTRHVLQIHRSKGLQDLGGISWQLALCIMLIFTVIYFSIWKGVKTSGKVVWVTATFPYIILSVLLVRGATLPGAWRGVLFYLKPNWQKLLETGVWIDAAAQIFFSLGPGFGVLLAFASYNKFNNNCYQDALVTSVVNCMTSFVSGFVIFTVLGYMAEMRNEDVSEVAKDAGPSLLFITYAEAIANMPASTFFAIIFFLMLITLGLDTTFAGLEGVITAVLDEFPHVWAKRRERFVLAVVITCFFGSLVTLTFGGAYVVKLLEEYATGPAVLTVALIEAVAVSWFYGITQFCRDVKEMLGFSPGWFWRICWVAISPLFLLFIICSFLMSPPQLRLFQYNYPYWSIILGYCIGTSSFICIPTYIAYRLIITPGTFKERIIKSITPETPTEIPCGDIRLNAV

[6] = target: SERT Y95F (Homo sapiens, UniProt P31645, Y95F)
Chain of SERT Y95F (P31645 whole entry Y95F): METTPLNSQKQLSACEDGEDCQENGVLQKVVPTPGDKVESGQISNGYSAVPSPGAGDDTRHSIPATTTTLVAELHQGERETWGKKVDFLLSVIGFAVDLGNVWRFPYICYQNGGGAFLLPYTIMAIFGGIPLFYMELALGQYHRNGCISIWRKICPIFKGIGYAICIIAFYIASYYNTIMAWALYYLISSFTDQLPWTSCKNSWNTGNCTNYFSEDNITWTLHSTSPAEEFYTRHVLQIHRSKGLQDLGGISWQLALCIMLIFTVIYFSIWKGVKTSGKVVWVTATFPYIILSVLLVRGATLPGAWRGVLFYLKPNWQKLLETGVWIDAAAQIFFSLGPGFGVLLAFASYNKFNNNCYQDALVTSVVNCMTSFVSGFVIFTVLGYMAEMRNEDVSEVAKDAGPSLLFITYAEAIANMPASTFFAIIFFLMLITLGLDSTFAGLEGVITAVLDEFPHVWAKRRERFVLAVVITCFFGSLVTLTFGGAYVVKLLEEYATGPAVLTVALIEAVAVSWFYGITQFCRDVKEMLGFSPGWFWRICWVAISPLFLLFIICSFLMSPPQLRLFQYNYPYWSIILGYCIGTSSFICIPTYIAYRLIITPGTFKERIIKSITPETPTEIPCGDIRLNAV

[7] = target: T1, SERT WT; remark: listed apart in the source
[8] = target: T1, SERT WT; conditions: Log[VLZ] (M) -4; ctrl = 1; replicates

## N#Cc1ccc2[nH]cc(CCCCN3CCN(c4ccc5oc(C(N)=O)cc5c4)CC3)c2c1 [VLZ, Vilazodone]
[1]; time 20 min
  [3H]IMI dissociation (Fig. 2B): 97.5521
[1]; time 30 min
  [3H]IMI dissociation (Fig. 2B): 96.6684
[1]; time 50 min
  [3H]IMI dissociation (Fig. 2B): 94.4925
[1]; time 70 min
  [3H]IMI dissociation (Fig. 2B): 87.7012
[1]; Log[VLZ] (M) -4
  VLZ Allosteric Potency SERT WT, [3H]IMI dissociation (Fig. 2C): 0
[1]; Log[VLZ] (M) -5.9101
  VLZ Allosteric Potency SERT WT, [3H]IMI dissociation (Fig. 2C): 0.1027 and 0.08972 and 0.1662 and 0.1172 and 0.01147
[1]; Log[VLZ] (M) -6.38561
  VLZ Allosteric Potency SERT WT, [3H]IMI dissociation (Fig. 2C): 0.0801 and 0.09017 and 0.06116 and 0.2108 and 0.1226 and 0.07783 and 0.1748 and 0.1023
[1]; Log[VLZ] (M) -6.86273
  VLZ Allosteric Potency SERT WT, [3H]IMI dissociation (Fig. 2C): 0.1665 and 0.2014 and 0.09755 and 0.4073 and 0.1925 and 0.0796 and 0.2088 and 0.1328
[1]; Log[VLZ] (M) -7.33985
  VLZ Allosteric Potency SERT WT, [3H]IMI dissociation (Fig. 2C): 0.3329 and 0.2727 and 0.2322 and 0.5054 and 0.3314 and 0.3281 and 0.2598 and 0.3035 and 0.2526
[1]; Log[VLZ] (M) -7.81697
  VLZ Allosteric Potency SERT WT, [3H]IMI dissociation (Fig. 2C): 0.6247 and 0.4843 and 0.4623 and 0.5542 and 0.4673 and 0.4013 and 0.468 and 0.4244
[1]; Log[VLZ] (M) -8.29409
  VLZ Allosteric Potency SERT WT, [3H]IMI dissociation (Fig. 2C): 0.894 and 0.6671 and 0.6226 and 0.8075 and 0.7294 and 0.5156 and 0.7279 and 0.5418
[1]; Log[VLZ] (M) -8.77121
  VLZ Allosteric Potency SERT WT, [3H]IMI dissociation (Fig. 2C): 0.9289 and 0.7744 and 0.7519 and 0.85 and 0.8487 and 0.773 and 0.7182 and 0.7591
[2]; 10 µM Fab, n = 1
  Effect of Fab fragment on allosteric potency of VLZ ([3H]S-CIT dissociation): no apparent effect; also recorded: unaffected
[2]; SERT WT, Log[VLZ] (M) -4, ctrl 0.9997
  Fab fragment VLZ allostery w [3H]S-CIT Dissoc (Suppl. Fig 3B): 0
[2]; SERT WT, Log[VLZ] (M) -6.046, ctrl 0.9997
  Fab fragment VLZ allostery w [3H]S-CIT Dissoc (Suppl. Fig 3B): 0.25
[2]; SERT WT, Log[VLZ] (M) -6.523, ctrl 0.9997
  Fab fragment VLZ allostery w [3H]S-CIT Dissoc (Suppl. Fig 3B): 0.5086
[2]; SERT WT, Log[VLZ] (M) -7, ctrl 0.9997
  Fab fragment VLZ allostery w [3H]S-CIT Dissoc (Suppl. Fig 3B): 0.7481
[2]; w. Fab fragment, Log[VLZ] (M) -6.046, ctrl 0.9993
  Fab fragment VLZ allostery w [3H]S-CIT Dissoc (Suppl. Fig 3B): 0.2288
[2]; w. Fab fragment, Log[VLZ] (M) -6.523, ctrl 0.9993
  Fab fragment VLZ allostery w [3H]S-CIT Dissoc (Suppl. Fig 3B): 0.3777
[2]; w. Fab fragment, Log[VLZ] (M) -7, ctrl 0.9993
  Fab fragment VLZ allostery w [3H]S-CIT Dissoc (Suppl. Fig 3B): 0.7313
[3]; 10 µM Fab, n = 1
  Effect of Fab fragment on allosteric potency of VLZ ([3H]IMI dissociation): no apparent effect; also recorded: unaffected
[3]; SERT WT, Log[VLZ] (M) -6
  Fab fragment VLZ allostery w [3H]IMI Dissoc (Suppl. Fig 3A): 0
[3]; SERT WT, Log[VLZ] (M) -7.34
  Fab fragment VLZ allostery w [3H]IMI Dissoc (Suppl. Fig 3A): 0.0851
[3]; SERT WT, Log[VLZ] (M) -7.817
  Fab fragment VLZ allostery w [3H]IMI Dissoc (Suppl. Fig 3A): 0.2902
[3]; SERT WT, Log[VLZ] (M) -8.294
  Fab fragment VLZ allostery w [3H]IMI Dissoc (Suppl. Fig 3A): 0.4378
[3]; w. Fab fragment, Log[VLZ] (M) -6
  Fab fragment VLZ allostery w [3H]IMI Dissoc (Suppl. Fig 3A): 0
[3]; w. Fab fragment, Log[VLZ] (M) -7.34
  Fab fragment VLZ allostery w [3H]IMI Dissoc (Suppl. Fig 3A): 0.077
[3]; w. Fab fragment, Log[VLZ] (M) -7.817
  Fab fragment VLZ allostery w [3H]IMI Dissoc (Suppl. Fig 3A): 0.2744
[3]; w. Fab fragment, Log[VLZ] (M) -8.294
  Fab fragment VLZ allostery w [3H]IMI Dissoc (Suppl. Fig 3A): 0.5049
[4]; Log[VLZ] (M) -6
  [3H]S-CIT binding inhibition: 6.1374 and 6.267 and 9.306 and 7.924
[4]; Log[VLZ] (M) -7
  [3H]S-CIT binding inhibition: 15.0029 and 12.5666 and 12.6935 and 13.2177 and 16.0372 and 22.3569
[4]; Log[VLZ] (M) -8
  [3H]S-CIT binding inhibition: 20.242 and 17.0122 and 17.5714 and 27.4498 and 22.8662
[4]; Log[VLZ] (M) -9.5
  [3H]S-CIT binding inhibition: 93.155 and 87.0219 and 91.9361 and 94.5429
[4]; Log[VLZ] (M) -10
  [3H]S-CIT binding inhibition: 90.7785 and 92.3382 and 88.1671 and 94.4965
[4]; Log[VLZ] (M) -11
  [3H]S-CIT binding inhibition: 106.327 and 106.337 and 110.336 and 113.218 and 118.473 and 111.36
[4]; Log[VLZ] (M) -12
  [3H]S-CIT binding inhibition: 92.524 and 93.4609 and 92.9453 and 86.9585 and 90.0353
[5]; Log[VLZ] (M) -8
  [3H]5-HT uptake inhibition S1 Mutants: 14.775 and 11.8665 and 12.0164 and 12.3243
[5]; Log[VLZ] (M) -8.5
  [3H]5-HT uptake inhibition S1 Mutants: 41.3444 and 41.8738 and 54.9583 and 30.416
[5]; Log[VLZ] (M) -9
  [3H]5-HT uptake inhibition S1 Mutants: 69.6167 and 63.3209 and 84.8416 and 54.068
[5]; Log[VLZ] (M) -9.5
  [3H]5-HT uptake inhibition S1 Mutants: 80.1053
[5]; Log[VLZ] (M) -10
  [3H]5-HT uptake inhibition S1 Mutants: 87.6994 and 103.115 and 83.4593
[5]; Log[VLZ] (M) -10.5
  [3H]5-HT uptake inhibition S1 Mutants: 92.1556 and 93.2014 and 102.815 and 97.2843
[5]; Log[VLZ] (M) -11
  [3H]5-HT uptake inhibition S1 Mutants: 102.782 and 106.151 and 94.1598
[5]; Log[VLZ] (M) -12
  [3H]5-HT uptake inhibition S1 Mutants: 100.15 and 89.7676 and 98.9977
[6]; Log[VLZ] (M) -7.5
  [3H]5-HT uptake inhibition S1 Mutants: 2.147 and 2.505 and 1.589 and 2.318
[6]; Log[VLZ] (M) -8
  [3H]5-HT uptake inhibition S1 Mutants: 11.0058 and 6.5 and 7.569
[6]; Log[VLZ] (M) -8.5
  [3H]5-HT uptake inhibition S1 Mutants: 23.4424 and 34.8885 and 39.8853 and 24.3563
[6]; Log[VLZ] (M) -9
  [3H]5-HT uptake inhibition S1 Mutants: 48.3194 and 75.9314 and 68.9865 and 51.2725
[6]; Log[VLZ] (M) -9.5
  [3H]5-HT uptake inhibition S1 Mutants: 92.5116 and 89.0566
[6]; Log[VLZ] (M) -10
  [3H]5-HT uptake inhibition S1 Mutants: 97.9526 and 106.373 and 93.3855 and 88.0755
[6]; Log[VLZ] (M) -10.5
  [3H]5-HT uptake inhibition S1 Mutants: 100.1 and 92.5093 and 97.0473 and 106.269
[6]; Log[VLZ] (M) -11
  [3H]5-HT uptake inhibition S1 Mutants: 98.0826 and 93.7606
[6]; Log[VLZ] (M) -12
  [3H]5-HT uptake inhibition S1 Mutants: 96.3138 and 97.3606 and 96.312 and 100.229
[7]
  Hill slope for inhibition of [3H]5-HT uptake: ~ 2
[7]; Log[VLZ] (M) -7.5
  [3H]5-HT uptake inhibition: 2.2056 and 2.462 and 3.034 and 2.528
[7]; Log[VLZ] (M) -9.5
  [3H]5-HT uptake inhibition: 92.7238
[7]; Log[VLZ] (M) -10
  [3H]5-HT uptake inhibition: 95.9437
[7]; Log[VLZ] (M) -10.5
  [3H]5-HT uptake inhibition: 103.235
[7]; Log[VLZ] (M) -11
  [3H]5-HT uptake inhibition: 103.321 and 85.9044
[8]
  VLZ Allosteric Potency SERT WT, [3H]S-CIT dissociation (Fig. 2C): 0
